Measured values published in US20160303231A1, “TREATING CANCER WITH A COMBINATION OF A PD-1 ANTAGONIST AND A VEGFR INHIBITOR” (GLAXOSMITHKLINE LLC, priority 2013, published 2016).
Counter-ions that a name gives are not always drawn.

Test system: RENCA cells
Assay: Anti-tumor response of tumor-bearing mice (RENCA tumor model)
Type: in vivo, BALB/c mice
Details: for Tumor Size (D17): Mean ± SEM, day 17
Procedure: A cohort of 8 weeks old female BALB/c mice were implanted with 1×10^6 RENCA cells. […] The Vehicle control was 0.5% hydroxypropylemethylcellulose, 0.1% Tween-80 in distilled water, pH adjusted to 1.3-1.5 with 0.1N hydrochloric acid. The Isotype control was mouse IgG1 specific for an adenoviral hexon protein (clone TC31.27F11).
A one-way ANOVA test was performed to compare tumor volume at the end of study among groups.

[1] = G4: Isotype 5 mpk + Pazopanib 100 mpk qd
[2] = G6: Isotype 1 mpk + Pazopanib 100 mpk qd
[3] = G8: Isotype 5 mpk + Pazopanib 100 mpk bid

Cc1ccc(Nc2nccc(N(C)c3ccc4c(C)n(C)nc4c3)n2)cc1S(N)(=O)=O [Pazopanib, 5-[[4-[(2,3-dimethyl-2H-indazol-6-yl)methylamino]-2-pyrimidinyl]amino]-2-methylbenzenesulfonamide monohydrochloride] was tested. Which T/C [1] did it give?
The T/C was 61%.

And the “TGI (tumor growth inhibition)” value [1]?
The value was 39%.

What about the T/C [2] of the same compound?
The T/C was 70%.

And the “TGI (tumor growth inhibition)” value [2]?
Its value is 30%.

What about the “Tumor Size (D17)” value [2] of the same compound?
Its value is 1,751 ± 214 mm^3.

And the T/C [3]?
Its T/C is 48%.

What about the “TGI (tumor growth inhibition)” value [3] of the same compound?
Its value is 52%.

What about the “Tumor Size (D17)” value [3] of the same compound?
Its value is 1,240 ± 97 mm^3.
